Reference: patent publication US11945822B2, “Pyrazolo-triazine and/or pyrazolo-pxrimidine derivatives as selective inhibitor of cyclin dependent kinase” (QURIENT CO., LTD., priority 2018, dated 2024)
pIC50: −log10 of the molar value. Read-outs that look alike come from different tables or passages of the source.

Columns and labels:
[1] = molecular target: T1, CDK1/Cyclin B (Homo sapiens, UniProt P06493); experiment: Enzymatic assay for CDK1 (FRET based LANCE Ultra kinase assay); type: biochemical
T1 construct: purchased Invitrogen PR4768C
Method in brief: (§1)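 TR-FRET (LANCE Ultra) kinase assay at ATP Km, ULight-MBP peptide substrate (68 nM), 8-dose 4-fold compound series in DMSO. Enzymes: […]; 60 min at 23° C., stopped with EDTA plus Eu-anti-phospho-MBP antibody, read 665/615 nm after 60 min.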

[2] = system: H460; experiment: Cellular H460 viability assay (CellTiter-Glo, 72 hours); type: cell-based; conditions: Homo sapiens, NCI-H460
Method in brief: (§2)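 Mycoplasma-tested cells, seeded at densities chosen for each line, received compound or DMSO vehicle (under 0.1% final) for 72 hours. Duplicate cultures were then read for viability by CellTiter-Glo luminescence.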

[3] = system: MOLT-4; experiment: Cellular MOLT-4 viability assay (CellTiter-Glo, 72 hours); type: cell-based; conditions: Homo sapiens, MOLT4 viability assay
Method in brief: as §2

[4] = molecular target: T2, CDK7/Cyclin H/MNAT1 (Homo sapiens, UniProt P50613); experiment: Enzymatic assay for CDK7 (FRET based LANCE Ultra kinase assay); type: biochemical
T2 construct: purchased Invitrogen PR6749B
Method in brief: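 Inhibition was measured at Km ATP by time-resolved FRET between a Eu anti-phospho antibody and a phosphorylated ULight peptide. The enzyme was the purified CDK7/cyclin complex, and data were curve-fitted.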

[5] = molecular target: T3, CDK2/Cyclin A (Homo sapiens, UniProt P24941); experiment: Enzymatic assay for CDK2 (FRET based LANCE Ultra kinase assay); type: biochemical
T3 construct: purchased Invitrogen PV6290
Method in brief: as §1

[6] = molecular target: T4, CDK5/p25 (Homo sapiens, UniProt Q00535); experiment: Enzymatic assay for CDK5 (FRET based LANCE Ultra kinase assay); type: biochemical
T4 construct: purchased Invitrogen PR8543B
Method in brief: as §1

[7] = system: A2780; experiment: Cellular A2780 viability assay (CellTiter-Glo, 72 hours); type: cell-based; conditions: Homo sapiens
From the text: (§3) Human T-cell acute lymphoblastic leukemia cell line, MOLT-4 (ATCC, Cat #CRL-1582), Human multiple myeloma cell line, RPMI-8226 (Invitrogen, Cat #22400-089) and MM.1S (ATCC, Cat #CRL-2974), NSCLC (Non-small cell lung cancer) cell line H460 (ATCC, Cat #HTB-177), Human colon colorectal carcinoma cell line HCT116 (ATCC, Cat #CCL-247), Human acute monocytic leukemia cell line MV4-11 (ATCC, Cat #CRL-9591), OVCAR-3 (ATCC, Cat #HTB-161) and A2780 (ECACC, Cat #93112519) were obtained from ATCC. Cells were grown in RPMI-1640 media (Invitrogen, Cat #22400-089) supplemented with 10% FBS (Invitrogen, Cat #10099141) and 1% penicillin/streptomycin (Invitrogen, Cat #15070063) and cultured at 37° C., 5% CO2 in a humidified chamber. All cell lines were routinely tested for mycoplasma.
(§4) The effect of the CDK7 inhibitor to inhibit the growth of target cancer cells was evaluated through the 72 hours time period of viability assay. Briefly, the candidate cell line ware plated in 96 well plate at the following density of cells respectively. 1×10^4 cells/well for MOLT-4, RPMI-8226, MV4-11 and MM.1S, 5×10^3 for H460, HCT116 and OVCAR-3 and IX 10^3 for A2780. After 24 hours, the cells were treated with various concentrations of the compound (ranging from 0.0015 uM to 10 uM). DMSO solvent without compound served as a control and final DMSO concentration less than 0.1%. After 72 hours of incubation at 37° C., 5% CO2 incubator, cells were analyzed for the viability using the CellTiter-Glo Luminescent Cell Viability Assay (Promega, Cat #G7570). All viability assays were performed in duplicate and Luminescence was read using an Envision (Perkin Elmer, USA). Data was analyzed using XLfit software.

[8] = system: MV4-11; experiment: Cellular MV4-11 viability assay (CellTiter-Glo, 72 hours); type: cell-based; conditions: Homo sapiens
Method in brief: as §2

[9] = system: RPMI-8226; experiment: Cellular RPMI-8226 viability assay (CellTiter-Glo, 72 hours); type: cell-based; conditions: Homo sapiens
Method in brief: as §2

[10] = system: MM.1S; experiment: Cellular MM.1S viability assay (CellTiter-Glo, 72 hours); type: cell-based; conditions: Homo sapiens, MM1.S
From the text: as §3, §4

[11] = system: HCT116; experiment: Cellular HCT116 viability assay (CellTiter-Glo, 72 hours); type: cell-based; conditions: Homo sapiens, HCT-116
Method in brief: as §2

[12] = read-out: CDK1 enzymatic activity (IC50 range)
[13] = read-out: CDK7 enzymatic activity (IC50 range)
[14] = read-out: CDK2 enzymatic activity (IC50 range)
[15] = read-out: CDK5 enzymatic activity (IC50 range)

T1 sequence (P06493 whole entry): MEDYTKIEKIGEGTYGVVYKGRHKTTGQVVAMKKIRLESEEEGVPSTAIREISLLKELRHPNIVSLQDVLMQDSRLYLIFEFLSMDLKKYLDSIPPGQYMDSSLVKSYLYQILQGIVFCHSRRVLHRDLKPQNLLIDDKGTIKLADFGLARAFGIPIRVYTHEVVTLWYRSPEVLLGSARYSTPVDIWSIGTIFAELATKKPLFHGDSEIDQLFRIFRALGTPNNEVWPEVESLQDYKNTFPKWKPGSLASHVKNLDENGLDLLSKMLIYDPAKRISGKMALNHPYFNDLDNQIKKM
T1 sequence (P14635 whole entry partner): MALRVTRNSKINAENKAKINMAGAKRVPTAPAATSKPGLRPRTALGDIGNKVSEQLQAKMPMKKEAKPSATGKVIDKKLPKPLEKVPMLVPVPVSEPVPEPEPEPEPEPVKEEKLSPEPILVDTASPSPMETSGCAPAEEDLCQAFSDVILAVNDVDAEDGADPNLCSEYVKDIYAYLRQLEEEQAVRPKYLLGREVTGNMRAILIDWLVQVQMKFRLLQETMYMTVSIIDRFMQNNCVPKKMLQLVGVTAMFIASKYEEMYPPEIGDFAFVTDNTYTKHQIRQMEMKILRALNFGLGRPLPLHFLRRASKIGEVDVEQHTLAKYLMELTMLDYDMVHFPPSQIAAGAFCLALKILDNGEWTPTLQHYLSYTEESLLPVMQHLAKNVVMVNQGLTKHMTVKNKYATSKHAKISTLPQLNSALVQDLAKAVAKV
T2 sequence (P50613 whole entry): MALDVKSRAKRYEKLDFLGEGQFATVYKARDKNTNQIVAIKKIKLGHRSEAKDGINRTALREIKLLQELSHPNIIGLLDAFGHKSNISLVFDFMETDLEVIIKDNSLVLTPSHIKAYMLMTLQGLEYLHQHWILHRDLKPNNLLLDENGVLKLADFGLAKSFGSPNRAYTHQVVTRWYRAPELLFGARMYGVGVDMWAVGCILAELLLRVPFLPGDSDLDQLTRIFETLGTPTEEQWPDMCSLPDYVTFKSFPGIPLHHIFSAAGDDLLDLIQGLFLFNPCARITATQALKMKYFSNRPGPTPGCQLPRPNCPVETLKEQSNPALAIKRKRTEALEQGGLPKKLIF
T2 sequence (P51946 whole entry partner): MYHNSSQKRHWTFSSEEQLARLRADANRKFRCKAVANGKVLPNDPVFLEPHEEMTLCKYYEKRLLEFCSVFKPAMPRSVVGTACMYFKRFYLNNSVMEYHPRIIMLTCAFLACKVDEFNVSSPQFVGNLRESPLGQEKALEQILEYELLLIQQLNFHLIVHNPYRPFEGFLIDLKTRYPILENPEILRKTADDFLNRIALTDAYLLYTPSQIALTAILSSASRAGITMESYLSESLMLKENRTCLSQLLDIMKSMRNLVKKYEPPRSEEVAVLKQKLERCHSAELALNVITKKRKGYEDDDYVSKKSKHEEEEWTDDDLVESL
T2 sequence (P51948 whole entry partner): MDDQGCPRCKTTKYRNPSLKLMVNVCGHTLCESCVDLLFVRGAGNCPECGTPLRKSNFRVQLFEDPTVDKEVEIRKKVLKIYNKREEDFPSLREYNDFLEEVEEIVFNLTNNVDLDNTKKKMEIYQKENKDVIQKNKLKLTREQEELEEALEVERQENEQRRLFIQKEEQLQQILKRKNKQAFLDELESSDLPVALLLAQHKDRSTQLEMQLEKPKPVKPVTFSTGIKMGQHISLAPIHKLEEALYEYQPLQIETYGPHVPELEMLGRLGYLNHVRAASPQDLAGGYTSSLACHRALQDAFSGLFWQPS
T4 sequence (Q00535 whole entry): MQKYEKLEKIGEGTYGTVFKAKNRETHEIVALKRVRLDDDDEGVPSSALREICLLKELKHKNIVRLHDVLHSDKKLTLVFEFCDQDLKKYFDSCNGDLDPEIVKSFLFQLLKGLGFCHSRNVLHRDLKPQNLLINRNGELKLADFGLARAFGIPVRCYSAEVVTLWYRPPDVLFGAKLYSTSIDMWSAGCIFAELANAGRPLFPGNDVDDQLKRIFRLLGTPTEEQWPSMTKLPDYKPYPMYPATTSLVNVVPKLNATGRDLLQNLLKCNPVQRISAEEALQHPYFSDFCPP
T4 sequence (Q15078 99-307 partner limits assumed): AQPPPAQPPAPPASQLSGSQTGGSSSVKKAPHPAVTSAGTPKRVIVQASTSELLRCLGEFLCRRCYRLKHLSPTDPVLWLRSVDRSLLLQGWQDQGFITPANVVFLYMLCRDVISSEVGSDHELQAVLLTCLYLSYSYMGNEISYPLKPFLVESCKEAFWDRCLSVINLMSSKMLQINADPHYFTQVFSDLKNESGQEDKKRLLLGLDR

Row | Structure (SMILES) | pIC50 [1, 12] | pIC50 [2] | CDK1/CDK7: Selectivity of CDK7 inhibition over CDK1 inhibition ([4]; CDK7 over CDK1) | CDK2/CDK7: Selectivity of CDK7 inhibition over CDK2 inhibition ([4]; CDK7 over CDK2) | CDK5/CDK7: Selectivity of CDK7 inhibition over CDK5 inhibition ([4]; CDK7 over CDK5) | pIC50 [4, 13] | pIC50 [5, 14] | pIC50 [6, 15] | pIC50 [7] | pIC50 [8] | pIC50 [11] | also measured
1 | CC(C)c1cnn2c(NCc3ccccc3-n3cccn3)nc(N3CCC(O)CC3)nc12 [Compound 4] | < 6.00 | 5.00 to 6.00 | B (B=less than 200 fold, but greater than 20 fold) | B (B=less than 200 fold, but greater than 20 fold) | B (B=less than 200 fold, but greater than 20 fold) | > 7.00 | 6.00 to 7.00 | 6.00 to 7.00 | 5.00 to 6.00 |  |  | pIC50 [3]: < 5.00
2 | CC(C)c1cnn2c(NCc3ccccc3-c3cc4ccccc4[nH]3)nc(N3CCOC(CN)C3)nc12 (racemic) [Compound 130] | < 6.00 | > 6.00 | A (A=greater than 200 fold) | B (B=less than 200 fold, but greater than 20 fold) | B (B=less than 200 fold, but greater than 20 fold) | > 7.00 | 6.00 to 7.00 | 6.00 to 7.00 | ≥ 6.00 | > 6.00 |  | pIC50 [9]: > 6.00
3 | CC(C)c1cnn2c(NCc3ccccc3-n3cc4cc(C(=O)NC5COC5)ccc4n3)nc(N3CCC(N)CC3)nc12 [Compound 176] | 6.00 to 7.00 | > 6.00 | B (B=less than 200 fold, but greater than 20 fold) | B (B=less than 200 fold, but greater than 20 fold) | B (B=less than 200 fold, but greater than 20 fold) | > 7.00 | 6.00 to 7.00 | 6.00 to 7.00 |  | > 6.00 |  | pIC50 [10]: ≥ 6.00
4 | CC(C)c1cnn2c(NCc3ccccc3-c3cc4ccccc4[nH]3)nc(NCC3CNCCO3)nc12 (racemic) [Compound 274] |  | > 6.00 |  |  |  |  |  |  | ≥ 6.00 | > 6.00 |  | pIC50 ([1]; read-out: CDK1 enzymatic activity (IC50 activity range)): < 6.00; CDK1/CDK7: Selectivity of CDK7 inhibition over CDK1 inhibition ([4]; CDK1/CDK7): A (A=greater than 200 fold); CDK2/CDK7: Selectivity of CDK7 inhibition over CDK2 inhibition ([4]; CDK2/CDK7): B (B=less than 200 fold, but greater than 20 fold); CDK5/CDK7: Selectivity of CDK7 inhibition over CDK5 inhibition ([4]; CDK5/CDK7): B (B=less than 200 fold, but greater than 20 fold); pIC50 ([4]; read-out: CDK7 enzymatic activity (IC50 activity range)): > 7.00; pIC50 ([5]; read-out: CDK2 enzymatic activity (IC50 activity range)): < 6.00; pIC50 [9]: 5.00 to 6.00; pIC50 ([6]; read-out: CDK5 enzymatic activity (IC50 activity range)): 6.00 to 7.00
5 | CC(C)c1cnn2c(N[C@@H](C)c3ccccc3-c3cc4ccccc4[nH]3)nc(N3CCC(N)CC3)nc12 [Compound 187] | < 6.00 | 5.00 to 6.00 | A (A=greater than 200 fold) | A (A=greater than 200 fold) | A (A=greater than 200 fold) | > 7.00 | < 6.00 | < 6.00 |  | 5.00 to 6.00 |  | pIC50 [10]: 5.00 to 6.00
6 | CC(C)c1cnn2c(NCc3ccccc3-n3cccn3)nc(N3CCNCC3)nc12 [Compound 2] | < 6.00 | > 6.00 | A (A=greater than 200 fold) | B (B=less than 200 fold, but greater than 20 fold) | B (B=less than 200 fold, but greater than 20 fold) | 6.00 to 7.00 | 6.00 to 7.00 | 6.00 to 7.00 | ≥ 6.00 | > 6.00 |  | pIC50 [3]: 5.00 to 6.00
7 | CC(C)c1cnn2c(NCc3ccccc3-c3cc4ccccc4[nH]3)nc(N3CCC(N)(CO)CC3)nc12 [Compound 129] | < 6.00 | > 6.00 | A (A=greater than 200 fold) | A (A=greater than 200 fold) | B (B=less than 200 fold, but greater than 20 fold) | > 7.00 | 6.00 to 7.00 | 6.00 to 7.00 | ≥ 6.00 | > 6.00 |  | pIC50 [9]: > 6.00
8 | CC(C)c1cnn2c(NCc3ccccc3-n3ccc(C(C)(C)O)n3)nc(NC[C@H]3CCNC[C@@H]3O)nc12 [Compound 233] | < 6.00 | > 6.00 | A (A=greater than 200 fold) | B (B=less than 200 fold, but greater than 20 fold) | A (A=greater than 200 fold) | > 7.00 | 6.00 to 7.00 | < 6.00 | ≥ 6.00 | > 6.00 | > 6.00 | 
9 | CC(C)(C)c1cnn2c(NCc3c(F)cccc3-n3cccn3)nc(N3CCC(N)CC3)nc12 [Compound 13] | < 6.00 | > 6.00 | A (A=greater than 200 fold) | B (B=less than 200 fold, but greater than 20 fold) | B (B=less than 200 fold, but greater than 20 fold) | > 7.00 | < 6.00 | 6.00 to 7.00 |  |  |  | pIC50 [10]: ≥ 6.00
10 | Cc1cccc(-c2cc(C(C)(C)O)nn2C)c1CNc1nc(N2CCC(N)CC2)nc2c(C(C)C)cnn12 [Compound 231] | < 6.00 | > 6.00 | A (A=greater than 200 fold) | A (A=greater than 200 fold) | A (A=greater than 200 fold) | > 7.00 | < 6.00 | < 6.00 | ≥ 6.00 | > 6.00 | > 6.00 | 
11 | CC(C)c1cnn2c(NCc3c(Cl)cccc3-n3ccc(C(C)(C)O)n3)nc(N3CCC(O)(CN)CC3)nc12 [Compound 238] | < 6.00 | > 6.00 | A (A=greater than 200 fold) | A (A=greater than 200 fold) | A (A=greater than 200 fold) | > 7.00 | < 6.00 | < 6.00 | ≥ 6.00 | > 6.00 | > 6.00 | 
12 | CC(C)c1cnn2c(NCc3ccccc3-c3ccc4ccccc4n3)nc(NCCC(O)CN)nc12 (racemic) [Compound 234] | < 6.00 | > 6.00 | A (A=greater than 200 fold) | A (A=greater than 200 fold) | A (A=greater than 200 fold) | > 7.00 | < 6.00 | < 6.00 | ≥ 6.00 | > 6.00 | > 6.00 | 
13 | CC(C)c1cnn2c(NCc3c(Cl)cccc3-c3cccc(C(C)(C)O)n3)nc(N3CCC(N)CC3)nc12 [Compound 241] | < 6.00 | > 6.00 | A (A=greater than 200 fold) | A (A=greater than 200 fold) | B (B=less than 200 fold, but greater than 20 fold) | > 7.00 | < 6.00 | < 6.00 | ≥ 6.00 | > 6.00 | > 6.00 | 
